{"source": "patent US20070111258A1", "about": "“Compositions and methods for modulating the acute phase response” (priority 2005, published 2007)", "test_system": "CREBH", "test": "Cleavage of flag-tagged CREBH in transfected wild-type CHO cells (nuclear fraction Western blot)", "type": "cell-based, Chinese hamster", "conditions": "Tm 5 μg/ml 10 hours", "protocol": "FIG. 5 depicts the cleavage of CREBH by proteases S1P and S2P upon ER stress. (A) CREBH is cleaved by S1P-KDEL, but not S1P-KDAS. COS7 cells were co-transfected with a construct expressing flag-tagged full-length CREBH and a construct expressing S1P-KDAS or S1P-KDEL. CREBH construct DNA (1 μg) was mixed with S1P-KDEL or S1P-KDAS construct DNA (1 or 2 μg as indicated) for transfection of cells in one well of a 6-well plate. COS7 cells expressing full-length CREBH were also cultured in the absence or presence of 0.5 μM BFA for 8 hours. COS7 cells expressing CREBH-ΔC, the cytosolic/nuclear form of CREBH, were included as a positive control. Expression and cleavage of CREBH were detected by Western blot analysis using an anti-flag antibody. (B) Cleavage of CREBH in wild-type (K1), S2P-deficient (M19), and […] CHO cells. […]\nFor analysis of expression and cleavage of CREBH protein, total cell lysates were prepared from H2.35 cells or COS7 cells using Nonidet P-40 lysis buffer (1% NP-40, 50 mM Tris-HCl at pH 7.5, 150 mM NaCl, 0.05% SDS) supplemented with protease inhibitors (Complete Mini from Roche Applied Science), 0.1 mM sodium vanadate, and 1 mM sodium fluoride. […] The total cell lysate, membrane and nuclear fractions were subjected to SDS-PAGE and then analyzed by Western blot using anti-flag monoclonal antibody or other antibodies. […]", "data": [{"substance": "tunicamycin [Tm]", "values": [{"measurement": "increase of the nuclear form of CREBH", "value": "approximately 6 fold"}]}]}
